Values quoted from earlier work as cited in EP3501609A1 (Zentiva K.S., priority 2017, dated 2019).

For `C=CC(=O)N1CCC[C@@H](n2nc(-c3ccc(Oc4ccccc4)cc3)c3c(N)ncnc32)C1` [ibrutinib form A], the solubility (pH 1.2) is given as “poorly soluble” and the solubility in water (pH range of 4.5-8) is given as “virtually insoluble”.
